The text below walks through data of patent US20260152777A1, “METHOD FOR PRODUCING EPIGALLOCATECHIN GALLATE MONOGLUCOSIDE” (GIVAUDAN SA, priority 2022, published 2026).

In one data set the test system is human skin explants. Briefly: Whitening activity (ex vivo), Fontana-Masson staining for melanin quantification. The class given is cell-based. Conditions: at 2%, topical, 7 days. How it is done: Fresh human skin explants were obtained from skin phototype III and VI donors, aged of 46±25 years. […] Kojic acid (Sigma-Aldrich) at 2% was topically applied and incubated under the same conditions, serving as positive control. The untreated condition was treated with the vehicle (distilled water). The medium was renewed every other day. After the end of culture, the skin explants were sampled and put in formalin before being dehydrated and embedded in paraffin for Fontana-Masson staining.
Skin explants fixed in formalin were dehydrated and embedded in paraffin. Sections of 4 μm thickness were dewaxed and then stained by Fontana-Masson silver method for melanin.
Images were collected using an Axio Observer Inverted fluorescence microscope (Zeiss) in bright field mode.
Melanin was quantified using two open source optical imaging software programs. Photomicrographs (jpeg format) of Fontana-Masson tissue sections were opened in GIMP-GNU Image Manipulation Program. The brown-black color signals corresponding to melanin grains on stained sections were selected, copied and pasted into a new image and saved as a jpeg file; this jpeg file consists solely of black/brown (melanin grains) on a white background. This image was subsequently opened using the ImageJ program. The image was then inverted and the mean intensity was obtained.

Data set [1] can be described thus: Skin penetration by Raman spectroscopy (ex vivo). The class given is in vitro ADME, human. Conditions: human. How it is done:
At the end of the incubation period, the skin explants were frozen in Optimal Cutting Temperature (OCT; VWR) at −80° C. and then cut longitudinally using a cryotome with a thickness of 20 μm. For each explant, 3 tissue sections were selected and deposited on a CaF2 support for Raman imaging analysis. The processing of corrected data maps was performed by using a software based on least squares fitting method that operates in the Matlab environment. This method involves mathematical modeling of reference spectra in the overall spectral image to determine the contribution and distribution of these spectra within the image. The reference spectra were the modelled spectra of the following products: Aglycone, glucoside mixture, 4′-O-α-monoglucoside and untreated skin control.

For data set [2], the system named is spontaneous formation of Advanced Glycation End-products (AGEs). Briefly: Anti-glycation in tubo assay (BSA + ribose, fluorescence). The class given is biochemical. Conditions: 17 h at 37° C.; for IC50: BSA + ribose, read-out: IC50 in well (concentration which inhibits AGEs formation by half). On the procedure: The anti-glycation effect was evaluated using an in tubo assay to measure the spontaneous formation of Advanced Glycation End-products (AGEs). This assay was conducted on a 96-wells microplate. […] The extracts were diluted in sodium phosphate buffer (0.1 M, pH 7.4). Several dilutions were tested. Each diluted extract was run in triplicate. A standard range of aminoguanidine was used as inhibitor reference (positive control). A mixture of the sodium phosphate buffer and BSA was used to validate the experiment and a mixture of sodium phosphate buffer, BSA and ribose was used as the positive control. Two blanks were carried out for the extract: • with phosphate buffer, BSA and extract • with phosphate buffer, ribose and extract The microplate was agitated and incubated for 17 h at 37° C. The fluorescence reading was performed with ? excitation 340 nm and ? emission 420 nm. The anti-glycation activity of the extract was calculated as follows: [formula] FI: Fluorescence of tested extract; blank extract (ribose or BSA); positive control; negative control. Based on the above measurements and calculation, the IC50, i.e. the concentration of the extract which inhibits AGEs formation by half, was calculated.

Data set [3] deals with female volunteers with a dark skin type (phototype IV or more) and dull skin. As to the kind of experiment: Clinical evaluation on African skin: skin color by Chromameter L* parameter. The class given is in vivo, human. Conditions: cream with 0.01% of EGCG aglycone, full face twice daily, dark skin type. On the procedure:
The clinical study was carried out on 85 female volunteers aged from 19 to 47 years, which were divided in three groups: active, placebo and aglycone. The study was performed in South Africa on female volunteers with a dark skin type (phototype IV or more) and dull skin. All participants provided signed informed consent at the beginning of the study. The study was conducted according to the guidelines of the Declaration of Helsinki. […] Skin color evolution was measured after 14, 28 and 56 days using L* parameter measurement by Chromameter®.
The skin color was evaluated by means of a Chromameter CR400, which measures skin color, and the parameter L* (lightness) was recorded. The greater the value, the lighter the skin color. Depending on the test type, at least three or at least 15 readings were taken at each test sub-site for each time interval to serve as the specific pigmentation sport color measurement component of the study. Skin color was analyzed at D0, D14, D28 and D56.
For all studies in vivo, a Shapiro Wilk test was used to verify whether the raw data followed the Gaussian Law. In case of Normally-distributed data, the mean values were compared using either an unpaired or paired t student test. In case of non-Normally-distributed data, a Wilcoxon (paired) and Kruskal-Wallis test followed by a Mann-Whitney U (unpaired) test were used for paired data and unpaired data, respectively.

The test system of data set [4] is Normal Human Epidermal Keratinocytes (NHEKs). As to the kind of experiment: Antioxidant activity: ROS production in keratinocytes stressed with TBP (DCFH-DA probe). The class given is cell-based. Conditions: at 200 μM. How it is done: A 96 wells-plate was coated with a collagen I solution at 50 μg/ml. Normal Human Epidermal Keratinocytes (NHEKs) were seeded at 20′000 cells per well with four replicates. Cells were incubated for 24 hours in complete medium (Epilife, Gibco) supplemented with Human keratinocyte growth supplements (HKGS) factor (Gibco) and 1% antibiotics (Sigma) at 37° C. with 5% CO2. […] The evolution of the fluorescence was followed for 1 hour.

As to `O=c1cc(CO)occ1O` [Kojic acid], the “reduction of melanin content compared to untreated” value in the data set with human skin explants is given as 34%.
As to `OCC1OC(Oc2c(O)cc(C3Oc4cc(O)cc(O)c4CC3O)cc2O)C(O)C(O)C1O` (stereo not drawn) [epigallocatechin 4′-O-α-monoglucoside, Epigallocatechin 4′-O-α-monoglucoside], the “bioavailability in the skin” value in data set [1] was “much higher bioavailability in the skin than the respective aglycones”.
For the molecule `O=C(O[C@@H]1Cc2c(O)cc(O)cc2O[C@@H]1c1cc(O)c(O)c(O)c1)c1cc(O)c(O)c(O)c1` [EGCG aglycone, epigallocatechin gallate], the IC50 in data set [2] came out at 128 µM. The “Inhibition AGE's” value worked out at 31.95% in data set [2] (tested concentration 0.109 mM), 59.84% in data set [2] (tested concentration 0.436 mM), 93.56% in data set [2] (tested concentration 2.180 mM) and 97.36% in data set [2] (tested concentration 10.9 mM). Also, the “L* on uneven skin tone area” value in data set [3] was “slight decrease of L*”. For the same molecule, the “global skin color whitening, 15 measurements on hemi face” value in data set [3] was “almost no whitening effect”.
For `N=C(N)NN` [aminoguanidine, reference compound], the IC50 in data set [2] was determined as 326 µM.
Turning to `Oc1ccc(C=Cc2cc(O)cc(O)c2)cc1` [Resveratrol], the “reduction of ROS production” value in data set [4] (24 h, NHEKs stressed with TBP 5 mM) worked out at 61%. The “ROS, Mean (% of untreated)” value in data set [4] (TBP column = 100, Untreated = 27.5) is listed as 39 % of untreated.
